Assay results from US20170165361A1, “TREATMENT OF LYSOSOMAL DISORDERS (ANTI-TNF THERAPY)” (Oxford University Innovation Limited, priority 2014, published 2017).
“And” between values parts separate entries of the source, which are not always exact repeats. Identical values can stand only once. “Also recorded” adds a separate entry of the source.

Assays:
Format in all cases: in vivo, mouse
[1] = Body weight of Npc1−/− mice, weighed weekly; settings: for effect on body weight (in words): Enbrel 200 μg twice a week, Humira 20 mg/kg three times a week, Remicade 6.25 mg/kg once a week; for body weight relative to initial weight at week 7: p<0.010
Description: (§1) Enbrel® (Amgen, USA) was administered via subcutaneous injection (200 μg/animal; Koca et al., 2008) in phosphate-buffered saline (PBS) twice a week starting at […] of age (n=7). Control group animals (n=7) were administered equal volumes of PBS subcutaneously. Humira® was administered 20 mg/kg three times a week (doses converted from human doses based on differential binding coefficients against murine and human TNF) (n=4) and Remicade® 6.25 mg/kg once a week (Deveci et al., 2008) (n=5).
Body weights of individual mice were recorded on a weekly basis. Tremor and locomotor analysis of both treated and control groups were conducted as described by Smith et al. (2009). The procedures are briefly detailed as follows:
Upon treatment with 200 μg Enbrel® for twice a week starting at 7 weeks of age, Npc1^−/− mice were weighed weekly until humane end point to monitor any possible effects exerted by drug treatment.

Npc1−/− mice [2] = assay: Survival of Npc1−/− mice (humane end point); settings: for effect on survival / lifespan (in words): Enbrel 200 μg/animal s.c. twice a week, Humira 20 mg/kg three times a week, Remicade 6.25 mg/kg once a week
Description: BALB/c mice with a mutation in the NIH allele of the Niemann Pick type Cl gene (NPCnih) were bred as heterozygotes to produce Npc1−/− (BALB/c npcnih/nih) and control genotypes (Pentchev et al., 1980). Breeding and treatment of mice were conducted as described previously (Smith et al., 2009). The humane end point of mice was defined as a loss of 10% weight within a 24 hour time frame. All procedures were conducted according to Animals (Scientific Procedures) Act 1986 under a valid Home Office License.
as §1
Upon treatment with […] Enbrel® for twice a week starting at 7 weeks of age, Npc1^−/− mice were weighed weekly until humane end point to monitor any possible effects exerted by drug treatment.

Npc1−/− mice [3] = assay: Open field rearing, manual count over 5 minutes (rearing and centre rearing); settings: for centre rearing count (no front-limb support) / rearing count (front limb support on side walls): 5 min; for centre rearing count (no front-limb support): Humira 20 mg/kg three times a week; for rearing activity vs. controls (in words): FIG. 4; for rearing count (front limb support on side walls): Remicade 6.25 mg/kg once a week
Description: as §1
(§2) Spontaneous activity of each mouse was recorded weekly using both an automated activity monitor (AmLogger; Linton Instrumentation, UK) and manual counting (NPC mice have a jumping phenotype in late stages of disease that can be scored as rears in the automated system so manual counts were included for this reason). The activity monitor comprises an array of infrared beams to determine the activity and motility of the subject animal. After 5-minute acclimatization in the room, each mouse was placed in the ‘open-field’ (a plasticbox measuring 45×25×12 cm) with home cage bedding to be recorded for 5 minutes. A similar setup was used for the open field rearing study, where the number of times the mouse reared on its hind legs (either against the cage wall “rearing” or without support “centre rearing”) was counted manually for 5 minutes.
Activity levels of the mice (Npc1^−/−) were recorded and classified by either “rearing” (FIG. 4A; rearing sustained by front limb support on side walls of the open-field box) or “centre rearing” (FIG. 4B; rearing with no front-limb support). […] In particular, rearing activity was maintained in Enbrel®-treated mice until 10 weeks whilst mice in the control group were no longer able to rear without front limb support (1.71 rears vs. 0.00 rears; p=0.01).

Npc1−/− mice [4] = assay: Locomotor activity, AmLogger automated activity monitor; settings: Enbrel 200 μg twice a week
Description: as §1, §2

Npc1−/− mice [5] = assay: Gait analysis, CatWalk single paw parameters; settings: Enbrel treatment, FIG. 7
Description: as §1
The CatWalk™ system (Noldus Information Technology, the Netherlands) was used for monitoring changes in movement patterns as indicative of any motor complications and to assess any gait improvement in response to treatment. Animals were subjected to CatWalk™ analysis biweekly, where a minimum of three ‘runs’ were collected per animal. The data collected were subsequently examined by CatWalk™ XT 10.0 software to produce a total of 177 inter-paw and intra-paw comparison parameters.
For this reason, it can be assumed that single paw parameters would reveal more sensitive indications of treatment benefits in the short time frame allowed by this acute disease model.

[6] = 9 weeks, mean±SEM, Enbrel 200 μg twice a week, control 0.429±0.30
[7] = 10 weeks, Enbrel 200 μg twice a week, control 0.00

Adalimumab [Humira]
effect on body weight (in words) [1]: did not impact mice weight | effect on survival / lifespan (in words) (Npc1−/− mice [2]): Neither did Humira® or Remicade® impact mice survival | centre rearing count (no front-limb support) (Npc1−/− mice [3]; 8 weeks, mean±SEM, vs. 2.00±1.35, p=0.033): 10.00±3.58 rears | centre rearing count (no front-limb support) (Npc1−/− mice [3]; [6]): 8.25±2.84 rears | centre rearing count (no front-limb support) (Npc1−/− mice [3]; [7]): 0.00 rears | centre rearing vs. controls and other treatments (in words) (Npc1−/− mice [3]; open field, FIG. 4B): more effective amongst the other treatments starting from 8 weeks; also recorded: sustained rearing activity beyond all control groups at later time points

Etanercept [Enbrel]
time spent in rearing (Npc1−/− mice [4]; 8 weeks, 5 min recording, vs. 3.29±1.775, p=0.0447): 16.86 ± 5.79 s | time spent in an active state (Npc1−/− mice [4]; 9 weeks, 5 min recording, vs. 143.43±17.625, p=0.0497): 208.14 ± 23.85 s | activity parameters vs. vehicle treated control (in words) (Npc1−/− mice [4]; FIG. 6): displayed higher activity levels; also recorded: induced higher levels of activity parameters | body weight relative to initial weight at 7 weeks ([1]; 200 μg Enbrel twice a week, time point not stated, vs. 87.46%, p=0.7270): 89.03% | effect on body weight (in words) [1]: did not cause any significant difference in body weights | single paw gait parameters (in words) (Npc1−/− mice [5]): beneficial effects | effect on survival / lifespan (in words) (Npc1−/− mice [2]): did not cause any significant difference in lifespan | lifespan (Npc1−/− mice [2]; Enbrel 200 μg/animal twice a week starting at 7 weeks of age, vs. 11.72±0.59 weeks, p=0.4840): 11.26±0.09 weeks | centre rearing count (no front-limb support) (Npc1−/− mice [3]; [6]): 1.71±0.61 rears | centre rearing count (no front-limb support) (Npc1−/− mice [3]; [7]): 1.71 rears and 1.71±0.57 rears | rearing activity vs. controls (in words) (Npc1−/− mice [3]; open field): displayed a higher level of rearing activity than control mice

Infliximab [Remicade]
effect on body weight (in words) [1]: caused significant weight loss at weeks 8 and 9 | body weight relative to initial weight at week 7 ([1]; week 8, Remicade 6.25 mg/kg once a week, vs. 101.31%): 89.11% | body weight relative to initial weight at week 7 ([1]; week 9, Remicade 6.25 mg/kg once a week, vs. 97.16%): 80.84% | effect on survival / lifespan (in words) (Npc1−/− mice [2]): Neither did Humira® or Remicade® impact mice survival | rearing count (front limb support on side walls) (Npc1−/− mice [3]; 8 weeks, mean±SEM, vs. 2.86±1.03, p=0.034): 7.80±1.71 rears | rearing count (front limb support on side walls) (Npc1−/− mice [3]; 9 weeks, mean±SEM, vs. 2.00±2.52, p=0.039): 7.20±2.27 rears | rearing activity vs. controls (in words) (Npc1−/− mice [3]; open field): sustained level of rearing activity starting from 7 weeks, higher than the two control groups (untreated and s.c. injected) and maintained up to 12 weeks
